Assay results reported in PMC7092364 (European journal of medicinal chemistry, 2017).
Marks after values point to notes of the source that are not given here.

Tests used:
NC(11–55) peptide = NC(11–55) peptide (Human immunodeficiency virus type 1 group M subtype B, UniProt P04591, I389N); assay: Nucleic acid destabilization assay; format: biochemical, HIV-1 MAL strain; conditions: 200 μM of compound
MT-2 cells = format: cell-based; conditions: human, 72 h
[1] = target: full-length recombinant NC (1–55) (Human immunodeficiency virus type 1 group M subtype B, UniProt P12493); assay: Non-denaturing ESI-MS binding and binding competition with NC; design: species or system HIV-1 LAI strain; conditions: for complex formation with NC (ESI-MS): 5 μM NC, ten-fold compound concentration

Structure (SMILES) | inhibition of the NC-induced cTAR55 destabilization (NC(11–55) peptide) | TD50 (MT-2 cells) | complex formation with NC (ESI-MS) [1] | affinity of 5–06 for NC relative to compound 5 ([1]; from fractional occupancies)
O=c1[nH]c2cc(S(=O)(=O)Nc3ccc4[nH]ncc4c3)ccc2o1 [5–06, N-(1H-indazol-5-yl)-2-oxo-2,3-dihydro-1,3-benzoxazole-5-sulfonamide] | by half | 140^# (75.0–378.0) μM | stable 1:1 complexes | two to three-fold higher affinity
Cc1ccc(NS(=O)(=O)c2ccc3oc(=O)[nH]c3c2)c(C)c1 [compound 5, N-(2,4-dimethylphenyl)-2-oxo-2,3-dihydro-1,3-benzoxazole-5-sulfonamide] | – | – | stable 1:1 complexes | –
